From patent US12441730B2, “PRMT5 inhibitors” (Merck Sharp & Dohme LLC, priority 2019, dated 2025) come the findings set out here.

In experiment [1] the test system is symmetric dimethylation of arginine (SDMA) of PRMT5 substrates in MCF-7 cells. The experiment is described as follows: PRMT5 Cell Target Engagement (TE) Assay. As to conditions: 3 days treatment, SDMA high content imaging. It counts as cell-based. The method, boiled down: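 MCF-7 cells treated 3 days at 37 °C with a ten-point 1:3 titration from 10000 nM. Fixed cells immunostained with anti-SDMA and Alexa488 secondary; nuclear fluorescence quantified by high-content imaging versus DMSO wells, with IC50 from a 4-parameter fit.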

For experiment [2], the target named is T1, Full-length (FL)-PRMT5-MEP50 enzyme complex (Homo sapiens, UniProt O14744).
T1 construct: Full-length (FL)-PRMT5-MEP50 enzyme complex (recombinant proteins from baculovirus-transfected Sf21 cells: FL-PRMT5; MW=73837 kDa and FL-MEP50; MW=38614); made in house; host or cells: baculovirus-transfected Sf21 cells
T1 sequence (O14744 whole entry): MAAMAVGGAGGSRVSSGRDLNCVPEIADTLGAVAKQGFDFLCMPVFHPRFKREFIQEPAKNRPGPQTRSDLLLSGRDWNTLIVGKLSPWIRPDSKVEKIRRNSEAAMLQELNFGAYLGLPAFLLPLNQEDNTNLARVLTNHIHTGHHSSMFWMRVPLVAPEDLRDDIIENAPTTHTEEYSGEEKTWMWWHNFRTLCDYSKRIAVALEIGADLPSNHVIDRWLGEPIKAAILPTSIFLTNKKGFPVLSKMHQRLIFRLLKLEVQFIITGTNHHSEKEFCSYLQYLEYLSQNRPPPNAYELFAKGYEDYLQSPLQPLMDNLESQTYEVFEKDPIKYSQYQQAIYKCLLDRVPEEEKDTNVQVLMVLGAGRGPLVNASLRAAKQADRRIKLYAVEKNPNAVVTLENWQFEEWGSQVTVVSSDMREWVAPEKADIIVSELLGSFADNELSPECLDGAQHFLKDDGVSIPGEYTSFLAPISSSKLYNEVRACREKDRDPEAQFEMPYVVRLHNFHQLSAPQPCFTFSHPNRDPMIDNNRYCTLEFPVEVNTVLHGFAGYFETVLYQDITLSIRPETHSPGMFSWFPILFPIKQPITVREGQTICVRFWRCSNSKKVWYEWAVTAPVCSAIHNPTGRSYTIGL
T1 sequence (Q9BQA1 whole entry partner): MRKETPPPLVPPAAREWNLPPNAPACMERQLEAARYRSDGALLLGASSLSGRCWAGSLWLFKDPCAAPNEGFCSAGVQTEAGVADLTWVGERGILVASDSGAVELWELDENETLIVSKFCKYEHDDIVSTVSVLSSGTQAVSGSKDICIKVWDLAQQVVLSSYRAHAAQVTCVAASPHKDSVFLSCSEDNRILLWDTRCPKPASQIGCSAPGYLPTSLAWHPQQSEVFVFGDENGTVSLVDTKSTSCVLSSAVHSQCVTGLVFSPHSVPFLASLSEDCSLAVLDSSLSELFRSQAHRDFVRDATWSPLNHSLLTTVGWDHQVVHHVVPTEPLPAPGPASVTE
Kind of experiment: PRMT5-MEP50 Enzyme Methylation Assay (Version A). It counts as biochemical. In a few lines: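 Compound was pre-incubated with enzyme for 60 min, then reacted 150 min at 37° C. at final 1.0 nM PRMT5-MEP50, 15 μM SAM and 75 nM biotinylated H4R3(Me1) peptide, in 50 mM Bicine pH 8.0 with 1% DMSO. SAMDI mass-spectrometric readout of Me1→Me2 conversion. EC50 from 4- or 7-parameter regression.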

Setting [3] is: single EC50 = 4 parameter single site sigmoidal fit, EC50 1 = first value of 7 parameter biphasic fit, read-out: Enzyme Methylation Assay Version A (EC50 or EC50 1).
Where [4] appears, read: second value of 7 parameter biphasic fit, read-out: Enzyme Methylation Assay Version A (EC50 2).

Like-named read-outs stand apart in the source and are kept apart here.

For `CO[C@H](C)c1cc(N2Cc3ncsc3C2)cn2cc(C(=O)N3CC[C@]4(Cc5ccccc5CN4)[C@H](O)C3)nc12` [Example 235, {6-(4,6-dihydro-5H-pyrrolo[3,4-d][1,3]thiazol-5-yl)-8-[(1R)-1-methoxyethyl]imidazo[1,2-a]pyridin-2-yl}[(3R,3′R)-3′-hydroxy-1,4-dihydro-1′H,2H-spiro[isoquinoline-3,4′-piperidin]-1′-yl]methanone], the EC50 came out at 62.7 nM in experiment [1] (Homo sapiens, MCF7, 72 h) and 20.6 nM in experiment [2] (setting [3]).
The like results for `CO[C@H](C)c1cc(N2CC3(CCCO3)C2)cn2cc(C(=O)N3CC[C@]4(Cc5ccccc5CN4)[C@H](O)C3)nc12` [Example 236, [(3R,3′R)-3′-hydroxy-1,4-dihydro-1′H,2H-spiro[isoquinoline-3,4′-piperidin]-1′-yl]{8-[(1R)-1-methoxyethyl]-6-(5-oxa-2-azaspiro[3.4]oct-2-yl)imidazo[1,2-a]pyridin-2-yl}methanone] were, in that order, 20.6 nM and 7.09 nM.
With `CO[C@H](C)c1cccn2cc(C(=O)N3CC[C@]4(Cc5ccccc5CN4)[C@H](O)C3)nc12` [Example 237, [(3R,3′R)-3′-hydroxy-1,4-dihydro-1′H,2H-spiro[isoquinoline-3,4′-piperidin]-1′-yl]{8-[(1R)-1-methoxyethyl]imidazo[1,2-a]pyridin-2-yl}methanone], the EC50 in experiment [1] (Homo sapiens, MCF7, 72 h) was 258 nM; in experiment [2] (setting [4]), 1840 nM; in experiment [2] (setting [3]), 9.13 nM.
As to `COc1cccnc1-c1cc([C@@H](C)OC)c2nc(C(=O)N3CC[C@]4(Cc5ccccc5CN4)[C@H](O)C3)cn2c1` [Example 238, [(3R,3′R)-3′-hydroxy-1,4-dihydro-1′H,2H-spiro[isoquinoline-3,4′-piperidin]-1′-yl]{8-[(1R)-1-methoxyethyl]-6-(3-methoxy-2-pyridinyl)imidazo[1,2-a]pyridin-2-yl}methanone], the EC50 in experiment [1] (Homo sapiens, MCF7, 72 h) stood at 4.25 nM; in experiment [2] (setting [3]), 1.27 nM.
The like results for `CO[C@H](C)c1cc(-c2cccnc2C)cn2cc(C(=O)N3CC[C@]4(Cc5ccccc5CN4)[C@H](O)C3)nc12` [Example 239, [(3R,3′R)-3′-hydroxy-1,4-dihydro-1′H,2H-spiro[isoquinoline-3,4′-piperidin]-1′-yl]{8-[(1R)-1-methoxyethyl]-6-(2-methyl-3-pyridinyl)imidazo[1 2-a]pyridin-2-yl}methanone] were, in that order, 3.33 nM and 0.613 nM.
On to `COc1nccc(-c2cc([C@@H](C)OC)c3nc(C(=O)N4CC[C@]5(Cc6ccccc6CN5)[C@H](O)C4)cn3c2)n1` [Example 240, [(3R,3′R)-3′-hydroxy-1,4-dihydro-1′H,2H-spiro[isoquinoline-3,4′-piperidin]-1′-yl]{8-[(1R)-1-methoxyethyl]-6-(2-methoxy-4-pyrimidinyl)imidazo[1,2-a]pyridin-2-yl}methanone], for which the EC50 is 21 nM in experiment [1] (Homo sapiens, MCF7, 72 h); 112 nM in experiment [2] (setting [4]); 0.376 nM in experiment [2] (setting [3]).
The like results for `CO[C@H](C)c1cc(-c2cncs2)cn2cc(C(=O)N3CC[C@]4(Cc5ccccc5CN4)[C@H](O)C3)nc12` [Example 241, [(3R,3′R)-3′-hydroxy-1,4-dihydro-1′H,2H-spiro[isoquinoline-3,4′-piperidin]-1′-yl]{8-[(1R)-1-methoxyethyl]-6-(1,3-thiazol-5-yl)imidazo[1,2-a]pyridin-2-yl}methanone] were, in that order, 4.87 nM, 211 nM and 0.932 nM.
For the compound `CO[C@H](C)c1cc(-c2ccnn2C)cn2cc(C(=O)N3CC[C@]4(Cc5ccccc5CN4)[C@H](O)C3)nc12` [Example 242, [(3R,3′R)-3′-hydroxy-1,4-dihydro-1′H,2H-spiro[isoquinoline-3,4′-piperidin]-1′-yl]{8-[(1R)-1-methoxyethyl]-6-(1-methyl-1H-pyrazol-5-yl)imidazo[1,2-a]pyridin-2-yl}methanone], the EC50 was found to be 1.81 nM in experiment [1] (Homo sapiens, MCF7, 72 h) and 0.7 nM in experiment [2] (setting [3]).
For `CO[C@H](C)c1cc(-c2ccnn2C(C)C)cn2cc(C(=O)N3CC[C@]4(Cc5ccccc5CN4)[C@H](O)C3)nc12` [Example 243, [(3R,3′R)-3′-hydroxy-1,4-dihydro-1′H,2H-spiro[isoquinoline-3,4′-piperidin]-1′-yl]{6-(1-isopropyl-1H-pyrazol-5-yl)-8-[(1R)-1-methoxyethyl]imidazo[1,2-a]pyridin-2-yl}methanone], in that order: 3.59 nM and 1.17 nM.
For `CO[C@H](C)c1cc(-c2sc(C)nc2C)cn2cc(C(=O)N3CC[C@]4(Cc5ccccc5CN4)[C@H](O)C3)nc12` [Example 244, {6-(2,4-dimethyl-1,3-thiazol-5-yl)-8-[(1R)-1-methoxyethyl]imidazo[1,2-a]pyridin-2-yl}[(3R,3′R)-3′-hydroxy-1,4-dihydro-1′H,2H-spiro[isoquinoline-3,4′-piperidin]-1′-yl]methanone], in that order: 1.68 nM and 0.675 nM.
For `CO[C@H](C)c1cc(-c2cnn(C)c2C)cn2cc(C(=O)N3CC[C@]4(Cc5ccccc5CN4)[C@H](O)C3)nc12` [Example 245, {6-(1,5-dimethyl-1H-pyrazol-4-yl)-8-[(1R)-1-methoxyethyl]imidazo[1,2-a]pyridin-2-yl}[(3R,3′R)-3′-hydroxy-1,4-dihydro-1′H,2H-spiro[isoquinoline-3,4′-piperidin]-1′-yl]methanone], in that order: 2.65 nM and 1.24 nM.
In the case of `CO[C@H](C)c1cc(-c2conc2C)cn2cc(C(=O)N3CC[C@]4(Cc5ccccc5CN4)[C@H](O)C3)nc12` [Example 246, [(3R,3′R)-3′-hydroxy-1,4-dihydro-1′H,2H-spiro[isoquinoline-3,4′-piperidin]-1′-yl]{8-[(1R)-1-methoxyethyl]-6-(3-methyl-4-isoxazolyl)imidazo[1,2-a]pyridin-2-yl}methanone], the EC50 came out at 6.31 nM in experiment [1] (Homo sapiens, MCF7, 72 h) and 0.977 nM in experiment [2] (setting [3]).
Consider `CO[C@H](C)c1cc(CN2CCCC2)cn2cc(C(=O)N3CC[C@]4(Cc5ccccc5CN4)[C@H](O)C3)nc12` [Example 247, [(3R,3′R)-3′-hydroxy-1,4-dihydro-1′H,2H-spiro[isoquinoline-3,4′-piperidin]-1′-yl]{8-[(1R)-1-methoxyethyl]-6-(1-pyrrolidinylmethyl)imidazo[1,2-a]pyridin-2-yl}methanone], for which the EC50 in experiment [1] (Homo sapiens, MCF7, 72 h) was determined as 75.3 nM; in experiment [2] (setting [4]), 646 nM; in experiment [2] (setting [3]), 0.661 nM.
For `COCc1nc(C)cn2cc(C(=O)N3CC[C@]4(Cc5ccccc5CN4)[C@H](O)C3)nc12` [Example 250, [(3R,3′R)-3′-hydroxy-1,4-dihydro-1′H,2H-spiro[isoquinoline-3,4′-piperidin]-1′-yl][8-(methoxymethyl)-6-methylimidazo[1,2-a]pyrazin-2-yl]methanone], the EC50 is 1730 nM in experiment [1] (Homo sapiens, MCF7, 72 h) and 610 nM in experiment [2] (setting [3]).
For `COc1nc2nc(C(=O)N3CC[C@]4(Cc5ccccc5CN4)[C@H](O)C3)cn2cc1C1CC1` [Example 251, (6-cyclopropyl-7-methoxyimidazo[1,2-a]pyrimidin-2-yl)[(3R,3′R)-3′-hydroxy-1,4-dihydro-1′H,2H-spiro[isoquinoline-3,4′-piperidin]-1′-yl]methanone], in that order: 1850 nM and 547 nM.
Consider `Cc1cn2cc(C(=O)N3CC[C@]4(Cc5ccccc5CN4)[C@H](O)C3)nc2c(Cl)n1` [Example 252, (8-chloro-6-methylimidazo[1,2-a]pyrazin-2-yl)[(3R,3′R)-3′-hydroxy-1,4-dihydro-1′H,2H-spiro[isoquinoline-3,4′-piperidin]-1′-yl]methanone], for which the EC50 in experiment [1] (Homo sapiens, MCF7, 72 h) worked out at 680 nM; in experiment [2] (setting [4]) it was 7080 nM; in experiment [2] (setting [3]) it was 11.7 nM.
The like results for `CC1OC(=O)Nc2cc(C(=O)N3CC[C@]4(Cc5ccccc5CN4)[C@H](O)C3)ccc21` (stereo partly drawn) [compound 171, 7-{[(3R,3′R)-3′-hydroxy-1,4-dihydro-1′H,2H-spiro[isoquinoline-3,4′-piperidin]-1′-yl]carbonyl}-4-methyl-1,4-dihydro-2H-3,1-benzoxazin-2-one] were, in that order, 6.47 nM, 733 nM and 0.929 nM.
Turning to “A diastereomer of [(3R,3′R)-3′- hydroxy-1,4-dihydro-1′H,2H- spiro[isoquinoline-3,4′-piperidin]-1′- yl][6-isopropyl-8-(1- methoxyethyl)imidazo[1,2- a]pyridin-2-yl]methanone [Example 85]”, the values for the EC50 in experiment [1], in experiment [2] (setting [4]) and in experiment [2] (setting [3]) were 115 nM, 3060 nM and 5.6 nM, respectively.
